Patent US20240398785A1, “SMALL MOLECULE DRUGS FOR THE INDUCTION OF TRAINED IMMUNITY” (THE UNIVERSITY OF CHICAGO, priority 2023, published 2024)
Structures can show the parent of a compound that is named as a salt. Where two headings read alike, the source gives them in different places.

Columns and labels:
[1] = test system: bone marrow-derived macrophages (BMDMs); experiment: High-throughput trained immunity screening (TNF-α by HEK-Blue Quanti-Blue assay); conditions: Mus musculus, BMDM, read-out: Fold Change (TNF-α production increase over untrained control)
Protocol: High-throughput trained immunity screening: Mature BMDMs were plated at 25,000 cells per well in 45 μL media in 384-well flat-bottomed plates using the Thermo Multidrop Combi liquid handler. Cells were rested overnight at 37° C. and 5% CO2. The following day, training compounds from the Microsource Spectrum Library were added at a volume of 45 nL using the PerkinElmer Janus G3 with Pintools for a final concentration of 1 μM. On day 2, supernatant was removed using the Janus, cells were washed with warm PBS using the Multidrop, and fresh media was added to the cells using the Multidrop. On day 5, cell density was quantified using the IncuCyte imager and software, then cells received media containing 25 ng/mL IFN-7 (BD Biosciences) for 24 hours. On day 6, cells were stimulated with 25 ng/mL Pam3-CSK4 (Invivogen). Supernatant was collected on day 6 and on day 7 following 24 hours of TLR stimulation, and it was stored at −80° C.
To measure TNF-α concentration in the supernatant, a high-throughput Quanti-Blue assay was used. HEK-Blue TNF-α cells (Invivogen) were plated at a density of 25,000 cells per well in 45 μL media (DMEM, 10% HIFBS). 5 μL of supernatant is added to each well using the Janus liquid handler, then the plates were incubated for 24 hours at 37° C. and 5% CO2. The following day, 20 μL of concentrated Quanti-Blue reagent was added to each well using the Combi liquid handler, and the plate was shaken for one minute. Then, the plate incubated at room temperature for 15 minutes before absorbance was measured at 628 nm using the BioTek Synergy NEO 2. All data is represented as a fold change relative to the average of the Pam3 only untrained control (n=20) on each plate.
An additional plate was seeded alongside the screen plates for a manual training assay and ELISA measurement of cytokine secretion to confirm that the BMDMs were behaving as expected. […] On Day 5, each well was imaged using an IncuCyte to quantify cell viability relative to the untrained controls.^20 Furthermore, the cells were checked to see if they maintained a resting phenotype before TLR stimulation by collecting and freezing the supernatant on Day 6 to measure TNF-α concentration after the assay was complete. Trained immunity effects are distinct from innate immune priming, so we checked that the cells maintained a resting phenotype before TLR stimulation by collecting and freezing the supernatant from each of the three screening replicates on Day 6 to measure TNF-α concentration after the assay was complete (FIG. 1F).
For each replicate of the screen, a modified version of the standard 7-day training assay was used.^18 TNF-α concentration was measured using a high throughput Quanti-Blue assay in HEK-Blue TNF-α cells. Concentration is proportional to absorbance measured at 628 nm within the range of the assay. 2,000 small molecules from the MicroSource Spectrum Library were screened.

[2] = test system: bone marrow-derived macrophages (BMDMs); experiment: Chemical inhibition of training (MTA, EGCG, 2DG pre-treatment); assay type: cell-based, mouse
Protocol: FIG. 3D is a graph of a glycolysis inhibition assay using 1 mM 2DG and measuring TNF-α concentration following Pam3 challenge in cells trained with 10 μM hydrocortisone after 1 h of pre-treatment with PBS or 2DG (n=15). FIGS. 3E-3I are graphs of TNF-α concentration following Pam3 challenge in cells trained with M 5-Fluoroindole-2-Carboxylic Acid (FIG. 3E), Myricetin (FIG. 3F), Nerol (FIG. 3G), Hydroquinone (FIG. 3H), or Fenoterol hydrobromide (FIG. 3I) after pre-treatment with PBS or glycolysis inhibitor, 2DG (n=15). […] All values are expressed as mean±SEM, and statistics were conducted using 2-way ANOVA with Sidak's multiple comparisons test (significance compared with untrained group). *P<0.05, **P<0.01, ***P<0.001, ****P<0.0001, n.s., not significant.
For inhibition studies, BMDMs received inhibitors at specified concentrations 1 h prior to stimulation with training molecules, and inhibitors were present for the entire 24 h training period. […] To test metabolic pathway involvement, cells were pretreated with 1 mM 2′ deoxy-D-glucose.
Upregulation of glycolysis is commonly implicated as one of the underlying mechanisms in the induction of trained immunity.

peritoneal cells = experiment: Peritoneal lavage spectral flow cytometry 2 h after LPS challenge; assay type: in vivo, mouse
Protocol: FIG. 4A is a schematic drawing showing a method of screening small molecule inducers of trained immunity in vivo. Mice were injected intraperitoneally (i.p.) with small molecules or vehicle control on days 0, 2, and 4. Mice were challenged with 1 μg lipopolysaccharide (LPS) on day 11 and then bled 1 hour (h) later. […] All values are expressed as mean±SEM, and statistics were conducted using 1-way ANOVA or 2-way ANOVA with multiple comparisons (significance compared with untrained group). *P<0.05, **P<0.01, ***P<0.001, ****P<0.0001, n.s., not significant. All values are expressed as mean±SEM, and statistics were conducted using 1-way ANOVA with two-stage linear step-up procedure (significance compared with untrained group). *P<0.05, **P<0.01, ***P<0.001, ****P<0.0001, n.s., not significant.
To determine which cells were involved, mice were given training injections and challenged as previously described. Then, 2 h after challenge, the mice were sacrificed, and peritoneal cells were collected by lavage. The cells were fixed and stained for intracellular TNF-α and IL-6 and surface costimulatory markers, CD40, CD86, and MHCII. Lineage markers were included for innate immune cells, including neutrophils, eosinophils, monocytes, macrophages, and dendritic cells. The stained cells were then analyzed via spectral flow cytometry.
The activation of these cells and changes to co-stimulatory molecules were then investigated.

[3] = test system: bone marrow-derived macrophages (BMDMs); experiment: In vitro trained immunity assay (ELISA, TLR agonist challenge); assay type: cell-based, mouse; conditions: for IL-6 production following challenge: 100 ng/mL Pam3
Protocol: FIG. 2H is a graph showing TNF-α concentration from BMDMs trained with PBS or hydrocortisone at a concentration of 10 μM followed by challenge with 100 nanograms per milliliter (ng/mL) lipopolysaccharide (LPS) or Pam3 (n=30). […] FIG. 2I is a graph showing TNF-α or interleukin-6 (IL-6) concentration from BMDMs treated with 10 μM hit compounds one hour (hr) prior to 24 hr stimulation with 100 ng/mL Pam3 (n=6). […] All values are expressed as mean±SEM, and statistics were conducted using 1-way ANOVA with Dunnett's multiple comparisons test (significance compared with untrained group). *P<0.05, **P<0.01, ***P<0.001, ****P<0.0001, n.s., not significant.
TNF-α (FIG. 13D) and IL-6 (FIG. 13E) were measured from BMDM cell culture supernatant 24 h following treatment with small molecules or β-glucan.
In vitro trained immunity assay: Mature BMDMs were plated at 10^5 cells per well in 200 L media in 96-well flat-bottomed plates and rested overnight at 37° C. and 5% CO2. The following day, training molecules were added at specified concentrations and incubated for 24 hours. After training, cells were washed with warm PBS and rested for 3 days in fresh media. On day 5, cells received fresh media containing 25 ng/mL IFN-7 (BD Biosciences) for 24 hours. On day 6, cells were stimulated with 100 ng/mL Pam3CSK4 (Invivogen). Cell supernatant was collected 24 hours after stimulation. Supernatants were measured for IL-6 and TNF-α concentrations using ELISA MAX Deluxe kits (BioLegend) according to manufacturer's instructions.
To select an optimal concentration and agonist pairing, a series of ELISAs were performed to validate the training effects.

[4] = glycolysis inhibitor 2-deoxy-D-glucose 1 mM
[5] = peritoneal lavage, 2 h after challenge

Row | Compound | fold induction at 1 µM [1] | other results
1 | C[C@]12C=CC(=O)C=C1CC[C@H]1[C@@H]3C[C@@H](O)[C@](O)(C(=O)CO)[C@@]3(C)C[C@H](O)[C@@]12F [Triamcinolone] | 1.76 | 
2 | CC1(C)C(C(Cl)Cl)C2(Cl)C(Cl)C(Cl)C1(Cl)C2(Cl)Cl (centres unmarked) [Toxaphene] | 1.63 | 
3 | Oc1ccc(Cl)cc1Cc1cc(Cl)ccc1O [Dichlorophene] | 1.61 | 
4 | CC(Cc1ccc(O)cc1)NCC(O)c1cc(O)cc(O)c1 (centres unmarked) [Fenoterol hydrobromide] | 1.62 | training (TNF-α after Pam3) after 2DG pre-treatment [2, 4]: not susceptible to suppression of training
5 | CC1(C)O[C@@H]2C[C@H]3[C@@H]4CCC5=CC(=O)CC[C@]5(C)[C@@]4(F)[C@@H](O)C[C@]3(C)[C@]2(C(=O)CCl)O1 [Halcinonide] | 2.7 | 
6 | CCC(C)(C)C(=O)O[C@H]1C[C@@H](C)C=C2C=C[C@H](C)[C@H](CC[C@@H]3C[C@@H](O)CC(=O)O3)[C@H]21 [Simvastatin] | 1.61 | 
7 | CC1(C)O[C@@H]2C[C@H]3[C@@H]4C[C@H](F)C5=CC(=O)C=C[C@]5(C)[C@H]4[C@@H](O)C[C@]3(C)[C@]2(C(=O)CO)O1 [Flunisolide] | 2.49 | cell count in the peritoneal lavage (peritoneal cells; 2 h after challenge): increased cell count; CD86 on eosinophils and small peritoneal macrophages (MFI of CD86+ cells) (peritoneal cells; peritoneal lavage): increased amount; MFI of MHCII+ SPMs (peritoneal cells; peritoneal lavage): increased; number of TNF-α+ and IL-6+ eosinophils (peritoneal cells; [5]): significant increases; training (TNF-α after Pam3) after 2DG pre-treatment [2, 4]: significant inhibition of training; training (TNF-α after Pam3) after EGCG pre-treatment ([2]; histone acetyltransferase inhibitor EGCG 15 μM, 10 μM compound): slightly reduce training though statistical significance was not achieved; training (TNF-α after Pam3) after MTA pre-treatment ([2]; methyltransferase inhibitor MTA 500 μM, 10 μM compound): significant inhibition of training
8 | C=C1CCC2C(CC2(C)C)C(=O)CCC1O (centres unmarked) [Isokobusone] | 1.66 | 
9 | Cc1cc2cc3c(C)cc(=O)oc3c(C)c2o1 [Trioxsalen] | 1.66 | 
10 | CCC(=O)O[C@]1(C(=O)CCl)[C@@H](C)C[C@H]2[C@@H]3CCC4=CC(=O)C=C[C@]4(C)[C@@]3(F)[C@@H](O)C[C@@]21C [Clobetasol propionate] | 2.07 | 
11 | N#Cc1c(Cl)c(Cl)c(Cl)c(C#N)c1Cl [Tetrachloroisophthalonitrile] | 1.61 | 
12 | O=c1c(O)c(-c2cc(O)c(O)c(O)c2)oc2cc(O)cc(O)c12 [Myricetin] | 2.19 | IL-6 production following challenge [3]: increased production of IL-6; cell count in the peritoneal lavage (peritoneal cells; 2 h after challenge): increased cell count; number of TNF-α+ and IL-6+ eosinophils (peritoneal cells; [5]): significant increases; training (TNF-α after Pam3) after 2DG pre-treatment [2, 4]: not susceptible to suppression of training
13 | NC(CO)C(=O)NNCc1ccc(O)c(O)c1O (centres unmarked) [Benserazide hydrochloride] | 1.61 | 
14 | CC(=O)N[C@@H](CC(=O)O)C(=O)O [N-Acetylaspartic acid] | 1.6 | 
15 | Cc1cc(CC(=O)O)n(C)c1C(=O)c1ccc(Cl)cc1 [Zomepirac Sodium] | 1.7 | 
16 | O=C(O)c1cc2cc(F)ccc2[nH]1 [5-Fluoroindole-2-carboxylic acid] | 2.47 | training (TNF-α after Pam3) after 2DG pre-treatment [2]: not susceptible to suppression of training
17 | NC(=O)N/N=C/c1ccc([N+](=O)[O-])o1 [Nitrofurazone] | 1.69 | 
18 | C[C@]12C=CC(=O)C=C1CC[C@@H]1[C@@H]2[C@@H](O)C[C@@]2(C)[C@H]1CC[C@]2(O)C(=O)CO [Prednisolone] | 2.06 | 
19 | CC1(C)O[C@@H]2C[C@H]3[C@@H]4C[C@H](F)C5=CC(=O)C=C[C@]5(C)[C@@]4(F)[C@@H](O)C[C@]3(C)[C@]2(C(=O)CO)O1 [Fluocinolone acetonide] | 2.28 | 
20 | CC(=O)OCC(=O)[C@@]1(O)CC[C@H]2[C@@H]3CCC4=CC(=O)CC[C@]4(C)[C@H]3[C@@H](O)C[C@@]21C [Hydrocortisone acetate] | 1.68 | 
21 | Oc1ccc(O)cc1 [Hydroquinone] | 1.68 | cytokine MFIs among TNF-α+ neutrophils and IL-6+ eosinophils (peritoneal cells; [5]): significant increases; number of TNF-α+ and IL-6+ cells (peritoneal cells; [5]): no increase; training (TNF-α after Pam3) after 2DG pre-treatment [2, 4]: not susceptible to suppression of training
22 | CN1CCCN=C1COC(=O)C(O)(c1ccccc1)C1CCCCC1 (centres unmarked) [Oxyphencyclimine hydrochloride] | 1.67 | 
23 | CC(=O)OCC(=O)[C@@]1(O)[C@H](OC(C)=O)C[C@H]2[C@@H]3CCC4=CC(=O)C=C[C@]4(C)[C@@]3(F)[C@@H](O)C[C@@]21C [Triamcinolone diacetate] | 1.73 | 
24 | CC(C)=CCC/C(C)=C\CO [Nerol] | 1.73 | training (TNF-α after Pam3) after 2DG pre-treatment [2, 4]: not susceptible to suppression of training
25 | COc1ccc(OC)c(C(O)C(C)N)c1 (centres unmarked) [Methoxamine hydrochloride] | 2.21 | 
26 | CC(C)[C@H]1CC[C@H](C(=O)N[C@H](Cc2ccccc2)C(=O)O)CC1 [Nateglinide] | 1.6 | 
27 | CC(=O)OCC(=O)[C@@]12OC(C)(C)O[C@@H]1C[C@H]1[C@@H]3C[C@H](F)C4=CC(=O)C=C[C@]4(C)[C@@]3(F)[C@@H](O)C[C@@]12C [Fluocinonide] | 2.29 | 
28 | C[C@]12CCC(=O)C=C1CC[C@@H]1[C@@H]2[C@@H](O)C[C@@]2(C)[C@H]1CC[C@]2(O)C(=O)CO [Hydrocortisone] | 1.78 | IL-6 production following challenge [3]: increased production of IL-6; TNF-α training effect with TLR4 and TLR1/2 agonists ([3]; 10 μM, challenge 100 ng/mL LPS or Pam3, n=30): Training effects were observed; training (TNF-α after Pam3) after 2DG pre-treatment [2, 4]: significant inhibition of training
29 | CCCC1O[C@@H]2C[C@H]3[C@@H]4CCC5=CC(=O)C=C[C@]5(C)[C@H]4[C@@H](O)C[C@]3(C)[C@]2(C(=O)CO)O1 (some centres unmarked) [Budesonide] | 2.69 | 
30 | O=c1[nH]c(=O)n([C@H]2C[C@H](O)[C@@H](CO)O2)cc1F [Floxuridine] | 1.6 | 
